The numbers were not newly measured in patent publication US20160199317A1, “ESTRADIOL CONTAINING TRANSDERMAL DRUG DELIVERY SYSTEMS AND COMPOSITIONS” (3M INNOVATIVE PROPERTIES COMPANY, priority 2013, published 2016), which cites them from elsewhere.

For the data set the following is noted: background statement.

The structures appear in SMILES notation.

In the case of `C[C@]12CC[C@@H]3c4ccc(O)cc4CC[C@H]3[C@@H]1CC[C@@H]2O` [estradiol, estra-1,3,5(10)-triene-3,17β-diol], the half-life result is “about one”.
